In patent publication US4962109A, “Insecticidally and acaricidally active pyrimidine esters and intermediates therefor” (Imperial Chemical Industries PLC, priority 1985, dated 1990):

Columns and labels:
Assay type in all cases: in vivo
[1] = system: Blattella germanica (cockroach nymphs); assay: Contact test on cockroach nymphs (BG/C), Plastic pot, mortality; conditions: 48 h, 500 ppm, contact, 2 days, read-out: BG/C grading of mortality
Method in brief: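 Cockroach nymphs and/or their medium were treated with aqueous preparations at 500, 250 or 100 ppm (acetone solution diluted in water with 0.01% Lissapol NX wetting agent). Mortality or knockdown was assessed typically 1–3 days later and graded A (80–100%), B (50–79%) or C (<50%).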

[2] = system: Tetranychus urticae (spider mites - ova); assay: Contact test on spider mites - ova (TUe), French bean leaf, mortality; conditions: 144 h, 500 ppm, contact, 6 days, read-out: TUe grading of mortality
Method in brief: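 Graded read-out: A 80-100%, B 50-79%, C below 50% mortality or knockdown, assessed usually 1-3 days post-treatment. Liquid preparations at 500, 250 or 100 ppm by weight, from acetone solution diluted in water with 0.01% wetting agent, applied to pests and/or their host plant or food medium.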

[3] = system: Heliothis virescens (tobacco budworm - larvae); assay: Residual test on tobacco budworm larvae (HV), Cotton leaf, mortality; conditions: 48 h, read-out: HV grading of mortality
Method in brief: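 Product in acetone diluted with water containing 0.01% Lissapol NX, at 500, 250 or 100 ppm; pests and/or host medium (here cotton leaf) treated. Mortality scored one to three days later, graded A (80-100%), B (50-79%), C (<50%).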

[4] = system: Musca domestica (houseflies - adults); assay: Contact test on houseflies - adults (MD), Cotton wool/sugar, mortality; conditions: 72 h, 500 ppm, contact, 3 days, read-out: MD grading of mortality
Method in brief: (§1)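 Product dissolved in acetone, diluted in water with 0.01% wetting agent to 500, 250 or 100 ppm; pests and/or host medium (plant or foodstuff) treated. Mortality or knockdown assessed 1–3 days later, graded A (80–100%), B (50–79%) or C (<50%).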

[5] = system: Nephotettix cincticeps (green leaf hopper - nymphs); assay: Contact test on green leaf hopper nymphs (NC), Rice plant, mortality; conditions: 48 h, 500 ppm, contact, 2 days, read-out: NC grading of mortality
Method in brief: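 Product dissolved in acetone, diluted in water with 0.01% wetting agent to 500, 250 or 100 ppm; nymphs and/or host rice plants treated. Mortality or knockdown assessed 1–3 days later, graded A (80-100%), B (50-79%), C (<50%).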

[6] = system: Tetranychus urticae (spider mites - adult); assay: Contact test on spider mites - adult (TUa), French bean leaf, mortality; conditions: 72 h, 500 ppm, contact, 3 days, read-out: TUa grading of mortality
Method in brief: as §1

[7] = system: Spodoptera exigua (lesser army worm - larvae); assay: Residual test on lesser army worm larvae (SP), Cotton leaf, mortality; conditions: 48 h, 500 ppm, residual, 2 days, read-out: SP grading of mortality
Method in brief: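 Product dissolved in acetone and diluted in water with 0.01% wetting agent to 500, 250 or 100 ppm; larvae and/or cotton leaf host treated. Mortality or knockdown scored one to three days later and graded A (80-100%), B (50-79%) or C (<50%).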

Myzus persicae (aphids) = assay: Contact test on aphids (MP), Chinese Cabbage leaf, mortality; conditions: 72 h, 500 ppm, contact, 3 days, read-out: MP grading of mortality
Method in brief: as §1

[8] = system: Diabrotica balteata (rootworm larvae); assay: Residual test on rootworm larvae (DB), Filter paper/maize seed, mortality; conditions: 48 h, 500 ppm, residual, 2 days, read-out: DB grading of mortality
Method in brief: as §1

[9] = system: Musca domestica (houseflies - adults); assay: Knockdown test on houseflies - adults (MD/KD), Cotton wool/sugar; conditions: 500 ppm, 4 hours, read-out: MD/KD grading of knockdown
Method in brief: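 Adult houseflies exposed to the compound at 500, 250 or 100 ppm in acetone/water with 0.01% wetting agent, on a cotton wool/sugar medium. Knockdown and mortality assessed, graded A (80-100%), B (50-79%) or C (<50%).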

Compound | mortality at 500 ppm [1] | mortality at 500 ppm [2] | mortality at 500 ppm [3] | mortality at 500 ppm [4] | mortality at 500 ppm [5] | mortality at 500 ppm [6] | mortality at 500 ppm [7] | mortality at 500 ppm (Myzus persicae (aphids)) | mortality at 500 ppm [8] | pest or weed control at 500 ppm [9]
CC(C)OCc1c(F)c(F)c(COC(=O)C(c2cnc(C(C)(C)C)nc2)C(C)(C)C)c(F)c1F (racemic) [Compound 189, 2,3,5,6-tetrafluoro-4-[(1-methyl)ethoxy]methylbenzyl (RS)-2-[2-(1,1-dimethylethyl)-pyrimidin-5-yl]-3,3dimethylbutanoate] | < 50% | < 50% | < 50% | < 50% | 80 to 100% | 80 to 100% | 80 to 100% | 80 to 100% | < 50% | 50 to 79%
COc1c(F)c(COC(C)C)c(F)c(F)c1COC(=O)C(c1cnc(C(C)(C)C)nc1)C(C)(C)C (racemic) [Compound 190, 2,3,5-trifluoro-6-methoxy-4-[(1-methyl)ethoxy]methylbenzyl (RS)-2-[2-(1,1-dimethylethyl)pyrimidin-5-yl]-3,3-dimethylbutanoate] | < 50% | < 50% | 80 to 100% | < 50% | 80 to 100% | 80 to 100% | 80 to 100% | 80 to 100% | < 50% | 80 to 100%
CC(C)(C)c1ncc(C(C(=O)OCc2c(F)c(F)c(COc3ccccc3)c(F)c2F)C(C)(C)C)cn1 (racemic) [Compound 192, 2,3,5,6-tetrafluoro-4-(phenoxymethyl)benzyl (RS)-2-[2-(1,1-dimethylethyl)pyrimidin-5-yl]-3,3-dimethylbutanoate] | < 50% | < 50% | < 50% | < 50% | < 50% | 80 to 100% | 80 to 100% | 50 to 79% | < 50% | < 50%
COc1c(F)c(COc2ccccc2)c(F)c(F)c1COC(=O)C(c1cnc(C(C)(C)C)nc1)C(C)(C)C (racemic) [Compound 193, 2,3,5-trifluoro-6-methoxy-4-(phenoxymethyl)benzyl (RS)-2-[2-(1,1-dimethylethyl)pyrimidin-5-yl]-3,3-dimethylbutanoate] | < 50% | < 50% | < 50% | < 50% | 50 to 79% | 80 to 100% | 80 to 100% | 80 to 100% | < 50% | < 50%
CCOc1c(F)c(COc2ccccc2)c(F)c(F)c1COC(=O)C(c1cnc(C(C)(C)C)nc1)C(C)(C)C (racemic) [Compound 194, 2,3,5-trifluoro-6-ethoxy-4-(phenoxymethyl)benzyl (RS)-2-[2-(1,1-dimethylethyl)pyrimidin-5-yl]-3,3-dimethylbutanoate] | < 50% | < 50% | < 50% | < 50% | < 50% | 80 to 100% | 80 to 100% | < 50% | < 50% | < 50%
COCc1c(F)c(F)c(CSC(=O)C(c2cnc(C(C)(C)C)nc2)C(C)(C)C)c(F)c1F (racemic) [Compound 195, 4-(methoxymethyl)-2,3,5,6-tetrafluorobenzyl (RS)-2-[2-(1,1-dimethylethyl)pyrimidin-5-yl]-3,3-dimethylbutanthioate] | < 50% | 80 to 100% | 80 to 100% | < 50% | 80 to 100% | 80 to 100% | 80 to 100% | 80 to 100% | 80 to 100% | < 50%
CC(C)(C)c1ncc(C(C(=O)SCc2c(F)c(F)c(CO)c(F)c2F)C(C)(C)C)cn1 (racemic) [Compound 196] | < 50% | < 50% | < 50% | < 50% | < 50% | < 50% | 80 to 100% | < 50% | < 50% | < 50%
CC(C)c1ncc(C(C(=O)OCc2ccc(F)c(Oc3ccccc3)c2)C(C)(C)C)cn1 (racemic) [Compound 197, 4-fluoro-3-phenoxybenzyl (RS)-2-[2-(1-methylethyl)pyrimidin-5-yl]-3,3-dimethylbutanoate] | < 50% | 80 to 100% | 80 to 100% | < 50% | 80 to 100% | 80 to 100% | 80 to 100% | 80 to 100% | 80 to 100% | 80 to 100%
C[C@@H](OC(=O)[C@@H](c1cnc(N(C)C)nc1)C(C)(C)C)c1cccc(Oc2ccccc2)n1 (racemic) [Compound 198, (RS)-1-(6-phenoxypyrid-2-yl)ethyl (RS)-2-[2-(N,N-dimethylamino)pyrimidin-5-yl]-3,3-dimethylbutanoate] | 80 to 100% | < 50% | 80 to 100% | < 50% | 80 to 100% | 80 to 100% | 80 to 100% | 80 to 100% | 80 to 100% | 80 to 100%
COCc1c(F)c(F)c(COC(=O)C(c2cnc(N(C)C)nc2)C(C)(C)C)c(F)c1F (racemic) [Compound 199] | 80 to 100% | 80 to 100% | 80 to 100% | 80 to 100% | 80 to 100% | 80 to 100% | 80 to 100% | 80 to 100% | 50 to 79% | 80 to 100%
CN(C)c1ncc(C(C(=O)OCc2ccc(F)c(Oc3ccccc3)c2)C(C)(C)C)cn1 (racemic) [Compound 200, 4-fluoro-3-phenoxybenzyl (RS)-2-[2-(N,N-dimethylamino)pyrimidin-5-yl]-3,3-dimethylbutanoate] | < 50% | < 50% | 80 to 100% | < 50% | 80 to 100% | 80 to 100% | 80 to 100% | 80 to 100% | < 50% | 80 to 100%
CC(C)(C)C(C(=O)OCc1ccc(F)c(Oc2ccccc2)c1)c1cnc(C2CC2)nc1 (racemic) [Compound 201, 4-fluoro-3-phenoxybenzyl (RS)-2-(2-cyclopropylpyrimidin-5-yl)-3,3-dimethylbutanoate] | 50 to 79% | 50 to 79% | 80 to 100% | 80 to 100% | 80 to 100% | 80 to 100% | 80 to 100% | 80 to 100% | 80 to 100% | 80 to 100%
C=C(C)C(C(=O)OCc1c(F)c(F)c(COC)c(F)c1F)c1cnc(C(C)(C)C)nc1 (racemic) [Compound 202, 2,3,5,6-tetrafluoro-4-(methoxymethyl)benzyl (RS)-2-[2-(1,1-dimethylethyl)pyrimidin-5-yl]-3-methylbut-3-enoate] | < 50% | < 50% | 50 to 79% | < 50% | 80 to 100% | 80 to 100% | 80 to 100% | 80 to 100% | < 50% | 80 to 100%
